Measured values as given in patent US20250346629A1, “USE OF D-ENANTIOMERIC PEPTIDE LIGANDS OF MONOMERIC ALPHA-SYNUCLEIN FOR THE THERAPY OF VARIOUS SYNUCLEINOPATHIES” (PRIAVOID GMBH, priority 2021, published 2025).
pKd: −log10 of the molar value. Like-named read-outs stand apart in the source and are kept apart here. One block for each compound: values may come before it. Square brackets hold non-standard residues; d marks the D form. Peptide text beside a SMILES is read from it.

How the values were obtained:
PC12 cells = type: cell-based; settings: rat, 24 h, 15 μM
Procedure: PC12 cells (Leibniz-Institut DSMZ, GE) were cultured at 37° C. on a collagen A-coated (Biochrom GmbH, GE) tissue culture flask in RPMI 1640 medium, supplemented with 5% fetal calf serum and 10% horse serum in an atmosphere humidified to 95% with 5% CO2. 10 000 cells per well in a volume of 100 μl were seeded into collagen A-coated 96-well plates (Thermo Fisher Scientific, USA and incubated for 24 hours at 37° C. and 300 rpm in a thermocycler.
Furthermore, 15 μM of the peptides alone, cell media, buffer without peptide and 0.1% Triton X-100 (cytotoxic compound) were used as controls. After further incubation in a 95% humidified atmosphere with 5% CO2 at 37° C. for 24 hours, the viability of the cells was measured using the Cell Proliferation Kit I (MTT) (Roche Applied Science, CH), following the manufacturer's protocol.
The MTT-formazan product was quantified by measuring the absorbance at 570 nm, corrected by subtracting the absorbance at 660 nm, in a FluoroStar Optima plate reader (BMG labtech, GE). All results were normalized to untreated cells grown only in medium. The significance test was carried out by one-way ANOVA with Bonferroni post-hoc analysis (OriginPro 2020, OriginLab, USA; n=4).
The significance test was carried out by one-way ANOVA with Bonferroni post-hoc analysis: […], ***p≤0.01. The means are stated±SD (n=4).

WT alpha-synuclein = WT alpha-synuclein (Homo sapiens, UniProt P37840); assay: Multicycle SPR experiment of WT alpha-synuclein and immobilized SVD-1 (FIG. 3); type: binding
Procedure: WT α-syn was injected in a concentration range of […] in PBS, PH 7.4. Regeneration: 2 M Gua-HCl and 0.1% SDS.

[1] = Solubility of D-peptides in buffer (UV-vis of supernatant after centrifugation); type: physicochemical; settings: different buffers including PBS, aqueous buffer; different buffer conditions including PBS pH 7.4; 1 h at 37° C., 20 800×g centrifugation; read-out: starting concentration up to which the compound remained completely in the supernatant
From the text: D-enantiomeric peptides with C-terminal amidation were acquired from CASLO (CASLO, DK) as a lyophilized chloride salt powder having a purity of >95%.

full-length α-syn = full-length α-syn (Homo sapiens, UniProt P37840); assay: MST measurement of fluorophore-labeled peptides with full-length α-syn (FIG. 10); type: binding; settings: 100 nM labeled peptide, PBS pH 7.4, 25° C., individual measurement
Procedure: The peptides were fluorescence labeled by means of cysteine-maleimide coupling. SVD-1_Cys and SVD 1a_Cys were fluorescence labeled at the C-terminus with a fivefold or tenfold molar excess of TCEP and CF633-PEG2-maleimide (Sigma-Aldrich, USA). The labeling reaction was carried out in 25 mM NaPi, PH 7.0, for 2 h at RT. The labeled peptides were purified at 25° C. using an Agilent 1260 Infinity II System and a C-18 RP-HPLC column (Zorbax 300 SB-C8/SB-C 18, Agilent, USA). The mobile phases consisted of A: water+0.1% TFA, and B: acetonitrile+0.1% TFA. The fluorescence-labeled peptides and proteins were eluted with a gradient of 5-40% (v/v) B in 30 min. The fluorescence-labeled products were fractionated using the absorption wavelength of the fluorophore (CF633: 633 nm) and the pooled samples were subsequently lyophilized and redissolved in the appropriate buffer. The protein concentrations were determined by means of UV-vis and the fluorescence-labeled samples were stored at −20° C.
The experiments for microscale thermophoresis (MST) were carried out using a Monolith NT.115 device (NanoTemper Technologies GmbH, GE). Fluorescence-labeled peptides were diluted in PBS, PH 7.4 to a final concentration of 100 nM. […] The data was evaluated with the thermophoresis effect, using the NT analysis software (version 1.5.41) supplied by the manufacturer. […]

α-syn [2] = target: α-syn (Homo sapiens, UniProt P37840, A140C); assay: MST measurement of SVD-1 and α-syn (FIG. 2, α-syn 140C-C2-Alexa 647); type: binding
From the text: 70% LED power; 60% MST power.

α-syn oligomers = α-syn oligomers (Homo sapiens, UniProt P37840); assay: α-syn oligomer elimination, HPLC-SEC of supernatant (FIG. 4); type: biochemical; settings: SVD-1 150 and 250 μM; 5 μM monomer-equivalent oligomers, 3 days, 900 rpm, 37° C.
From the text: The samples were centrifuged at 21 000×g and the supernatant was loaded onto an HPLC-SEC column.

α-syn [3] = target: α-syn (Homo sapiens, UniProt P37840); assay: Gradient centrifugation of α-syn aggregation samples (FIG. 6); type: biochemical; settings: equimolar SVD-1, 9 days, 37° C., no shaking, Iodixanol gradient
Procedure: No shaking, no glass beads, at 37° C. After 9 days, the triplet samples were combined together and 100 μl was added to an Iodixanol gradient (5-50% (w/v)). 15 fractions, each of 140 μl were analyzed by means of RP-HPLC using a Zorbax 300 SB-C8 column and integrated to α-syn peaks.

WT α-syn = WT α-syn (Homo sapiens, UniProt P37840); assay: Single cycle SPR experiment of WT α-syn on CM5-immobilized peptides (FIG. 8); settings: 1:1 binding model fit, CM5 chip, PBS pH 7.4, 0.005% Tween-20
Procedure: Each peptide was immobilized on a CM5 sensor chip surface. WT α-syn was injected in a concentration range of 30-500 nM in PBS, PH 7.4, 0.005% (v/v) Tween-20. Regeneration was carried out after every cycle with 2 M Gua-HCl for 2×30 sec. The KDs were determined with a 1:1 binding model fit, as follows: SVD-1a: 15.7 nM; SVD-6a: 14.0 nM; SVD-10a: 12.3 nM.

[4] = test system: αSynA53T-YFP cells (HEK293T); assay: Cell assay for seeded α-synuclein aggregation (FIG. 19); type: cell-based, human
Procedure: A construct encoding full-length A53T-mutated human α-syn and fused with YFP at the C-terminus was synthesized and introduced into the pMK-RQ expression vector (GeneArt; Thermo Fisher Scientific, USA). The α-synA53T-YFP construct was sub-cloned using the restriction sites NheI (5′) and NotI (3′) in the vector pIRESpuro3 (Clontech; Takara Bio, JPN). HEK293T cells (American Type Culture Collection) were cultured in high-glucose Dulbecco's Modified Eagle's Medium (DMEM; Sigma-Aldrich, USA) which had 10% fetal calf serum (Sigma-Aldrich, USA), 50 units/ml penicillin, and also 50 μg/ml streptomycin (Sigma-Aldrich, USA) added thereto. The cells were cultured at 37° C. in a humidified atmosphere with 5% CO2.
The cells plated in DMEM were transfected with Lipofectamine 2000 (Invitrogen; Thermo Fisher Scientific, USA). Stable cells were selected in DMEM with 1 μg/ml puromycin (EMD Millipore, USA). Monoclonal cell lines were produced by means of fluorescence-activated cell sorting of a polyclonal cell population in 96-well plates using a MoFlo XDP cell sorter (Beckman Coulter, USA). […]
The plates were then incubated at 37° C. in a humidified atmosphere with 5% CO2. On the third day, the cells were imaged in an IN Cell Analyzer 6500HS system (Cytiva, USA) using the blue and green fluorescence channels, and analyzed by the IN Carta Image Analysis software (Cytiva, USA) which had been used to establish an algorithm for identifying intracellular aggregates in living cells. Four wells were used for each condition and 16 images were recorded per well and analyzed by a fully-automated algorithm in order to prevent distortions. […]
In order to validate the inhibitory effect of SVD-1a in cells, use was made of the α-synA53T-YFP cell system which stably expresses human α-syn with the familial A53T mutation, fused with YFP, in HEK293T cells, and the fluorescence-based detection of aggregates makes it possible to clearly show the strongly fluorescent spots within the cells against the background, intracellularly after seeding with PFF oligomers. […] Panels C, F and I show αSynA53T-YFP fluorescence. […]

Compound: CC[C@@H](C)[C@@H](NC(=O)[C@@H](Cc1c[nH]cn1)NC(=O)[C@@H](CCC(=O)O)NC(=O)[C@@H](CCC(N)=O)NC(=O)[C@@H](Cc1c[nH]c2ccccc12)NC(=O)[C@@H](Cc1ccc(O)cc1)NC(=O)[C@H](NC(=O)[C@@H](CCC(=O)O)NC(=O)[C@@H](Cc1c[nH]cn1)NC(=O)[C@H](NC(=O)[C@H]1CCCN1C(=O)[C@@H](CCSC)NC(=O)[C@H](N)CCCCN)[C@H](C)O)[C@H](C)O)C(=O)N[C@H](Cc1c[nH]c2ccccc12)C(=O)N[C@H](Cc1c[nH]cn1)C(=O)N[C@H](C)C(N)=O [SVD-1, kmpthetywqehiwha] (H-[dK][dM][dP][dT][dH][dE][dT][dY][dW][dQ][dE][dH][dI][dW][dH][dA]-NH2)
cells saved (cell viability) (PC12 cells): 89%
pKd (WT alpha-synuclein; heterogeneous ligand adjustment, PBS pH 7.4, read-out: KD1): 7.90
pKd (WT alpha-synuclein; read-out: KD2, heterogeneous ligand adjustment, PBS pH 7.4): 5.70
solubility at 1 h [1]: ≥ 1000 µM
pKd (full-length α-syn): 6.77
pKd (α-syn [2]): 7.26
α-syn oligomer in the supernatant (α-syn oligomers): not possible to detect any α-syn oligomer in the supernatant
fibril formation (fractions F6-F12) (α-syn [3]): No fibril formation (F6-F12) was observed

pKd (WT α-syn): 7.85
Compound: CC(C)C[C@@H](NC(=O)[C@H]1CCCN1C(=O)[C@@H](CCC(N)=O)NC(=O)[C@@H](CCCNC(=N)N)NC(=O)[C@@H](Cc1c[nH]c2ccccc12)NC(=O)[C@@H](CC(=O)O)NC(=O)[C@H](N)Cc1ccc(O)cc1)C(=O)N[C@H](CO)C(=O)N[C@H](C)C(=O)N[C@H](CO)C(=O)N[C@H](CCCNC(=N)N)C(=O)N[C@H](Cc1ccccc1)C(=O)N[C@H](CC(C)C)C(=O)N[C@H](C)C(=O)N1CCC[C@@H]1C(=O)N[C@H](Cc1c[nH]c2ccccc12)C(=O)N[C@H](CCCNC(=N)N)C(=O)N[C@H](CCCNC(=N)N)C(=O)N[C@H](CCCNC(=N)N)C(=O)N[C@H](CCCNC(=N)N)C(=O)N[C@H](CCCNC(=N)N)C(N)=O [SVD-6a, ydwrqplsasrflapwrrrrr] (H-[dY][dD][dW][dR][dQ][dP][dL][dS][dA][dS][dR][dF][dL][dA][dP][dW][dR][dR][dR][dR][dR]-NH2)

pKd (WT α-syn): 7.91
Compound: C[C@H](O)[C@@H](NC(=O)[C@@H](CC(N)=O)NC(=O)[C@@H](Cc1c[nH]c2ccccc12)NC(=O)[C@@H](Cc1ccc(O)cc1)NC(=O)[C@H]1CCCN1C(=O)[C@H]1CCCN1C(=O)[C@@H](CC(N)=O)NC(=O)[C@@H](Cc1c[nH]c2ccccc12)NC(=O)[C@@H](CCC(N)=O)NC(=O)[C@@H](CCC(N)=O)NC(=O)[C@@H](Cc1c[nH]c2ccccc12)NC(=O)[C@@H](Cc1c[nH]cn1)NC(=O)[C@@H](CO)NC(=O)[C@H](N)CO)C(=O)N[C@H](CC(=O)O)C(=O)N[C@H](CO)C(=O)N[C@H](CCCNC(=N)N)C(=O)N[C@H](CCCNC(=N)N)C(=O)N[C@H](CCCNC(=N)N)C(=O)N[C@H](CCCNC(=N)N)C(=O)N[C@H](CCCNC(=N)N)C(N)=O [SVD-10a, sshwqqwnppywntdsrrrrr] (H-[dS][dS][dH][dW][dQ][dQ][dW][dN][dP][dP][dY][dW][dN][dT][dD][dS][dR][dR][dR][dR][dR]-NH2)

Compound: kgvgnleyqlwalegk-NH2
cells with aggregation ([4]; 25 μM peptide, seeded with soluble α-syn-PFF oligomers, third day): 85%
inhibition of α-syn aggregation in cells ([4]; seeded with 30 nM PFF oligomers, day 3, two-stage transfection): not
